The values below come from paper PMC6168621 (Frontiers in Pharmacology, 2018).

“Also recorded” adds a separate entry of the source. Like-named read-outs stand apart in the source and are kept apart here. Marks after values point to notes of the source that are not given here.

The Ki is the equilibrium dissociation constant of an inhibitor or competing ligand from its target. High values mean lower affinity, low ones higher affinity. For orientation: Emax means the greatest response seen or fitted, relative to the assay's reference.

The nature of series [1]: LC-MS/MS analysis of forensic clinical samples (urine, serum). The following applies: human forensic clinical sample; for Concentration in serum: Patient 002, serum (text: blood); for Concentration in urine: Patient 002, urine. It is filed as in vivo. The source says:
For human studies, ToxBox® analytical test kits were provided by PinPoint Testing, LLC (Little Rock, AR, United States) to streamline sample preparation and testing procedures for SCBs, confounding drugs of abuse and other non-specified NPSs. ToxBox® contained NIST-traceable, certified reference material for all standards and isotopically-labeled internal standards along with ISOLUTE® SLE+ 96-well plates manufactured by Biotage (Charlotte, NC, United States). This newly developed kit identifies not only novel SCBs and associated metabolites, but also over 200 drugs and other NPSs that often confound such analytical tests. Optima-grade formic acid, acetonitrile, and methanol were purchased from Fisher Scientific (Fair Lawn, NJ, United States). Deionized water was purified to 18.2 MΩ⋅cm resistivity using the equivalent of a Millipore laboratory water purification system. All other chemicals and supplies were provided by Cerilliant (Round Rock, TX, United States), Cayman Chemical Company (Ann Arbor, Michigan, United States), Lipomed (Cambridge, MA), Biotage (Charlotte, NC, United States) or HemoStat Laboratories (Dixon, CA, United States). Blank defibrinated sheep blood or blank human blood void of drug contamination was used for all studies.
Supported liquid extraction (SLE) procedures were optimized for 96-wellplate processing on a PerkinElmer Zephyr G3 SPE Workstation (Waltham, MA, United States). Sample extracts were analyzed using an Agilent 1260 quaternary liquid chromatography system (Santa Clara, CA, United States) coupled to an Agilent 6420 tandem mass spectrometer (LC-MS/MS). Instrument control and data acquisition relied on MassHunter LC/MS Data Acquisition (VER B.08.00). Data analysis was performed using MassHunter Quantitative Analysis (VER B.07.01 SP2).
Use of this material was approved by the Institutional Review Board of the University of Arkansas for Medical Sciences (Little Rock, AR, United States) (IRB #217584).
All blood calibration standards, QC material, and unknown samples were processed identically by mixing 0.25 ml of blank blood or unknown specimen in appropriate wells at 900 rpm for 15 min, pretreating with 0.25 mL of 0.5 M ammonium hydroxide, and then mixing for another 15 min at 900 rpm. Samples were then loaded, under gentle vacuum or positive pressure, onto a 400 mg ISOLUTE® SLE+ 96-wellplate. Samples were allowed to equilibrate for 5 min before extracting under gravity with two fractions of 900 μL of ethyl acetate. All sample extracts were evaporated to dryness under a gentle flow of nitrogen and reconstituted in 100% methanol (100 μl).
Analytical procedures used 5 μl injections on a 2.6 μm Phenomenex Kinetex Phenyl Hexyl (50 × 4.6 mm) LC column heated to 35°C. Analytes were resolved at 0.5 mL/min using mobile phase A (10 mM ammonium formate in ultrapure 18.2 MΩ⋅cm water) and mobile phase B (0.1% formic acid in methanol). Analytes are resolved using a gradient starting at 95% aqueous (Mobile Phase A) and ramping to 0% aqueous over 4 min, and holding constant for 1 min. The gradient returned to initial conditions over 0.1 min and equilibrated for an additional 1.9 min. The total run time including column equilibration period between injections was 7.0 min. Specific mass spectrometer and analyte parameters are provided in Supplementary Tables S2, S3.

Series [2] has as its target T1, hCB1Rs (Homo sapiens, UniProt P21554).
T1 construct: host or cells: CHO-K1 (CHO-hCB1)
The experiment in a line: biochemical. It counts as binding. The note with it: [^3H]CP-55,940 binding, CHO-hCB1 membranes.

Series [3] relates to human liver microsomes (HLMs). The experiment in a line: Glucuronidation of AB-PINACA and JWH-018 metabolites in HLMs. It is filed as in vitro ADME. The note with it: 50 μM substrate, HLMs with UDPGA, 90 min, 37°C. The protocol: A typical incubation mixture (30 μl of total volume) contained 100 mM Tris-HCl (pH 7.4), 5 mM MgCl2, 3 mM UDPGA, 80 μg/ml alamethicin, 50 μg HLMs, 5 mM saccharolactone, and 50 μM 4OH- or 5OH-AB-PINACA. […] After incubation at 37°C for 90 min, reactions were terminated by the addition of 30 μl cold ethanol. Following removal of the protein by centrifugation at 12,000 × g for 10 min, a 5-μl portion of the sample was subjected to UPLC. All incubations were performed in triplicate.
Parent compounds and glucuronidated metabolites were identified by the ACQUITY UPLC System with a UV detector (Milford, MA, United States). […] The column was re-equilibrated at initial conditions for 2.5 min between runs. The elution was monitored at 300 nm. The retention times of 4OH-AB-PINACA, 5OH-AB-PINACA, 4OH-AB-PINACA glucuronide, and JWH-018-M2 were 3.989, 3.994, 3.646, and 5.391 min.
FIGURE 4 Glucuronidation of 4OH- and 5OH-AB-PINACA in human liver microsomes (HLMs). 4OH-AB-PINACA (A) and 5OH-AB-PINACA (B) were incubated for 90 min with HLMs in the presence or absence of UDPGA. The terminated reaction mixtures were subjected to the UPLC analysis and the eluent was monitor with a UV detector at 300 nm and chromatograms presented. (C) The peak area of the glucuronide was estimated from the triplicate determinations. The data are presented as mean value ± SD. ND, not detected. (D) Comparison of glucuronidation of JWH-018-M2 and 4OH-AB-PINACA with HLMs. JWH-018-M2 and 4OH-AB-PINACA (5 μM) were incubated for 90 min with HLMs in the presence or absence of UDPGA. The terminated reaction mixtures were subjected to the UPLC analysis and the eluent was monitor with a UV detector at 300 nm. The remaining amount of the substrates was quantified by using standard curves of JWH-018-M2 and 4OH-AB-PINACA. The data was shown as mean value ± SD. ^∗P < 0.001. TEXT PRINTED IN THE PICTURE: (C) 5OH-AB-PINACA: Peak area (μV*sec): ND

Series [4] addresses T1, hCB1Rs. The experiment in a line: biochemical. The following applies: CHO-hCB1 membranes; for Emax: read-out: EMAX, [^35S]GTPγS binding (maximal G-protein activation). For orientation: GTPγS is a poorly hydrolysed GTP analogue; its binding reports G protein activation.
Series [5] relates to CD1 mice. The experiment in a line: Cannabinoid-elicited hypothermia (rectal temperature). It counts as in vivo. The protocol: For in vivo studies, rimonabant was synthesized in the laboratory of Dr. Thomas E. Prisinzano at the University of Kansas School of Pharmacy (Lawrence, KS, United States), and provided to us as a generous gift. AB-PINACA, and its 4OH metabolite were obtained from Cayman Chemical Company (Ann Arbor, MI, United States). All cannabinoids were dissolved in a vehicle consisting of ethanol, emulphor and saline at a ratio of 1:1:18. Injections were administered via the intraperitoneal (IP) route at a constant volume of […]. Rimonabant was administered at a dose of 10 mg/kg, 60 min before injection of AB-PINACA or its 4OH metabolite.
Adult male CD1 mice (Charles River Laboratory, Wilmington, MA, United States) were housed three subjects per cage (15.2 cm × 25.4 cm × 12.7 cm) in a temperature-controlled room in a vivarium accredited by the Association for Assessment and Accreditation of Laboratory Animal Care, and given ad libitum food (Laboratory Rodent Diet no. 5001; PMI Feeds, St. Louis, MO, United States) and water. The vivarium was maintained at 22°C ± 2°C and 45–50% humidity, with lights set to a 12-h light/dark cycle (lights on at 6:00 AM, CST). […] All procedures were carried out in accordance with the Guide for Care and Use of Laboratory Animals as adopted and promulgated by the National Institutes of Health (NIH). The experimental protocol has been approved by the Institutional Animal Care and Use Committee (IACUC) at the University of Arkansas for Medical Sciences (UAMS).
Mice were habituated to handling and weighing prior to initiation of experimental procedures. A digital thermometer (model BAT-12, PhysiTemp, Clifton, NJ, United States) equipped with a Ret-3 mouse probe (model 50314, Stoelting Co., Dale, IL, United States) was lubricated and inserted approximately 2 cm into the rectum. Stable temperatures were obtained within ∼6 s. Rectal temperature data were sampled immediately before injection, and at 10, 30, 60, 120, 240, and 360 min after injection.
Curve-fitting was conducted utilizing GraphPad Prism® v6.0b (GraphPad Software, Inc.; San Diego, CA, United States). Non-linear regression for one-site competition was used to determine the IC50 for competition receptor binding. The Cheng-Prusoff equation ([Cheng and Prusoff, 1973]) was employed to convert the experimental IC50 values obtained from competition receptor binding experiments to Ki values (a quantitative measure of receptor affinity). Curve fitting of concentration-effect curves via non-linear regression was also employed to determine the […] or IC50 (measures of potency) and Emax or Imax (measures of efficacy) for the [^35S]GTPγS and adenylyl cyclase experiments, respectively. All dissociation constants and measurements of potency were converted to pKi, pEC50, or pIC50 values by taking the negative log of each value so that parametric tests could be used for statistical comparisons. A one-way ANOVA, followed by Tukey’s Multiple Comparison post hoc test, was used to determine statistical significance (P < 0.05). For animal studies, temperature data are shown as mean values (±SEM) for groups of subjects at each drug dose and time point. For statistical analyses, only the highest dose of AB-PINACA or its 4OH- metabolite (with and without rimonabant pretreatment) were considered. The lowest temperatures recorded for each subject within each group (regardless of when after drug administration it occurred) were compared to vehicle data using a one-way ANOVA and Tukey’s HSD post hoc test. Significance was judged at P < 0.05.

Series [6] deals with T1, hCB1Rs. The series is described as follows: cell-based. It counts as cell-based. The note with it: intact CHO-hCB1 cells, 10 μM forskolin, 15 min.
Setting [7] is: Ki, 0.2 nM [^3H]CP-55,940, Cheng-Prusoff.
Setting [8] is: pKi, 0.2 nM [^3H]CP-55,940, mean ± SEM.
[9] abbreviates: mean ± SEM, read-out: pEC50, [^35S]GTPγS binding (converted).
Setting [10] is: read-out: EC50, [^35S]GTPγS binding.

T1 sequence (P21554 whole entry): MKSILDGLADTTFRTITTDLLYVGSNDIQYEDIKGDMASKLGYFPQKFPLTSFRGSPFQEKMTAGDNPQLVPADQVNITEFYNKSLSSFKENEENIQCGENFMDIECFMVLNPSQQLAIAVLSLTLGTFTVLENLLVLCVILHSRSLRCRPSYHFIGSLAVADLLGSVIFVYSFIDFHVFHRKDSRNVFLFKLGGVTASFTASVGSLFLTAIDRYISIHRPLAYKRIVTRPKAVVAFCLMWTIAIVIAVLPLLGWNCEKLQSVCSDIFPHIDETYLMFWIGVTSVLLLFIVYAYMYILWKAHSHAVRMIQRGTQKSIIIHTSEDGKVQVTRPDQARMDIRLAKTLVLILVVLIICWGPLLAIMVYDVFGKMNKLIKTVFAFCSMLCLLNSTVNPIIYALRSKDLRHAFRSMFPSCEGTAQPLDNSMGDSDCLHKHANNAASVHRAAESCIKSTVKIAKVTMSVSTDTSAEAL

`CC(C)(C)[C@H](NC(=O)c1nn(CC2CCCCC2)c2ccccc12)C(N)=O` returned a Concentration in serum in series [1] of 11.3 ng/mL.

With `CC(C)C(NC(=O)c1nn(CCCCCO)c2ccccc12)C(N)=O` (stereo not drawn) [5OH-AB-PINACA], the Ki in series [2] (setting [7]) is 452 nM; in series [2] (setting [8]) it was 447 nM. Further, in series [3], the “Glucuronide formation (UPLC peak)” value is “no such peak is observed; also recorded: glucuronidation is not involved in the clearance”. In series [4] (mean ± SEM), the Emax came to 100 ± 16.8%. Besides, the EC50 in series [4] (setting [9]) is 2820 nM; in series [4] (setting [10]) it was 2740 nM.

In turn, `CC(C)[C@H](NC(=O)c1nn(Cc2ccc(F)cc2)c2ccccc12)C(N)=O` [AB-FUBINACA] displayed a Concentration in urine in series [1] of 1.1 ng/mL.

As to `CCCCCn1nc(C(=O)N[C@H](C(N)=O)C(C)C)c2ccccc21` [AB-PINACA, (S)-N1(1-amino-3-methyl-1-oxobutan-2-yl)-1-pentyl-1H-indazole-3-carbox-amide], the Ki in series [2] (setting [7]) is 4 nM; in series [2] (setting [8]), 1.78 nM. The molecule further registered a Concentration in serum in series [1] of 1.2 ng/mL. In series [1], this molecule gave a Concentration in urine of 0.9 ng/mL. In addition, the “Lowest rectal temperature, hypothermic effect vs vehicle” value in series [5] (10.0 mg/kg i.p., P < 0.05) is “significantly different”. Further, the “Lowest rectal temperature, drug alone vs rimonabant pretreatment” value in series [5] (10.0 mg/kg i.p., rimonabant 10.0 mg/kg 60 min before, P < 0.05) is given as “significantly different”. In addition, the “Effect on rectal temperature” value in series [5] (3.0 and 10.0 mg/kg, i.p.) is “dose- and time-dependent hypothermic effects”; in series [5] (lowest tested dose (1.0 mg/kg), i.p.), “prevents the typical injection-elicited increase in rectal temperature”. Also, the Emax in series [4] (mean ± SEM) amounted to 71.9 ± 5.8%. Moreover, the values for the EC50 in series [4] (setting [9]) and in series [4] (setting [10]) were 8.71 nM and 12.8 nM, respectively. In addition, in series [6], the “IMAX, cAMP accumulation (maximal adenylyl cyclase inhibition)” value is reported as 72.0 ± 2.1^b %. In addition, the IC50 in series [6] (read-out: IC50, cAMP accumulation (adenylyl cyclase inhibition)) is 3.9 nM; in series [6] (read-out: pIC50, cAMP accumulation (converted)), 2.24 nM.

On to `Cc1c(C(=O)NN2CCCCC2)nn(-c2ccc(Cl)cc2Cl)c1-c1ccc(Cl)cc1` [Rimonabant, reference compound], for which the “Effect on rectal temperature” value in series [5] (10 mg/kg, alone) is given as “does not alter rectal temperature”.

Molecule `C=C(C)C(C)(C)CC(=O)c1cn(CCCCC(=O)O)c2ccccc12` [UR-144-pentanoic acid degradant] came in with a Concentration in serum in series [1] of 5.4 ng/mL.
